# Results reported in publication PMC10580319, “Quantitative Imaging of the Action of vCPP2319, an Antimicrobial Peptide from a Viral Scaffold, against Staphylococcus aureus Biofilms of a Clinical Isolate” (ACS Infectious Diseases, 2023).
# Where no end group is shown, it is not given here.
# Key:
# Assay type in all cases: cell-based, Staphylococcus aureus
# [1] = system: S. aureus clinical isolate biofilms; assay: CLSM assay, SYTO 9 / WGA Alexa Fluor 633, polysaccharide density and mass, biofilm height; settings: fold variation relative to untreated biofilm, 0.13 mg/mL α-amylase, 25 μM vCPP2319, 4 h each
# Protocol: (EC 3.2.1.1) on the EPS matrix of S. aureus biofilms was evaluated using a CLSM-based assay. Briefly, the bacterial cells and the matrix components of S. aureus biofilms were imaged using SYTO 9 and Wheat Germ Agglutinin (WGA) Alexa Fluor 633 Conjugate (Invitrogen, Carlsbad, CA, USA). Preformed biofilms (see above) were washed once with PBS and stained with 3 μM SYTO 9 and 5 μg/mL WGA Alexa Fluor 633, for 15 min at room temperature.
# SYTO 9 was excited using the Argon laser (488 nm), and both TO-PRO-3 iodide and WGA Alexa Fluor 633 were excited with the Helium–Neon laser (633 nm), respectively. Image acquisition was performed on a Zeiss LSM 710 confocal laser point-scanning inverted microscope (Carl Zeiss MicroImaging, Oberkochen, Germany) equipped with a Plan-Apochromat DIC 63× oil immersion objective (1.40 numerical aperture). For each experiment, three different areas were imaged. All images were analyzed with the image processor Fiji.[54] TO-PRO-3 mean fluorescence intensity over the image was quantified from the xy plane of an inner layer (z = 2 μm, z being the distance from the surface of the glass slide) using Fiji’s incorporated plug-ins.[54] WGA mean fluorescence intensity over the image was quantified from the xy plane of an inner layer (z = 2 μm, z being the distance from the surface of the glass slide) and also from a z-projection of the sum of the z-stack slices, using Fiji’s incorporated plug-ins.[54] Biofilm height was determined from the xz orthogonal images using ZEN lite software (Carl Zeiss MicroImaging).
# The mean emission fluorescence intensity of WGA integrated over a plane xy at a specific depth, z, If,WGA,xy, is proportional to the mass of polysaccharides in that plane.
# [2] = system: S. aureus clinical isolate biofilms; assay: AFM imaging, surface roughness (Rrms); settings: 4 h; for cell surface roughness (Rrms): untreated 7.4 ± 1.9 nm; for biofilm surface roughness (Rrms): untreated 183 ± 23 nm
# Protocol: AFM was used to visualize the topography and morphology of S. aureus biofilms in the absence and presence of vCPP2319. Bacterial suspensions at 1 × 10^6 CFU/mL were incubated in a sterile slide with a removable 12 well silicone chamber (Ibidi) for 24 h at 37 °C. After a washing step with MHB, preformed biofilms were incubated in the absence or presence of vCPP2319 at 25 or 50 μM, for 4 h at 37 °C. Untreated and treated biofilms were then washed once with sterile Milli-Q water and incubated with 0.1% (v/v) glutaraldehyde (Sigma-Aldrich) for 4 h at room temperature. Afterward, each sample was washed twice with sterile Milli-Q water and allowed to dry in air for 1 h at room temperature. AFM images were acquired by using a JPK NanoWizard IV (Berlin, Germany) mounted on a Zeiss Axiovert 200 inverted microscope (Oberkochen, Germany). The AFM head was equipped with a 15 μm z-range linearized piezoelectric scanner and an infrared laser. Images were acquired in air and in intermittent contact mode using uncoated silicon ACL cantilevers from AppNano (Mountain View, CA, USA) with typical resonance frequencies of 200–400 kHz and spring constant of 13–77 N/m. Scan speeds ranged between 0.2 and 0.4 Hz and total scan areas of 5 × 5 μm were imaged. Height and error images were recorded. Height images reflect the topography of the sample. Error images are generated by the deflection of the cantilever as it bends while interacting with the sample and are adequate to improve resolution on the edges of objects imaged by AFM. For each experiment, three different areas were imaged. The surface roughness was defined as the root-mean-square roughness (Rrms)[52] and it was obtained from AFM height images using Gwyddion software version 2.56, based on the following equation after compensation for bacterial curvature: [drawing 3] 3 where N is the number of data points and zi is the height deviation of i-th point from a mean line.[53] For the biofilm surface roughness, Rrms values were calculated from the total imaged area of the biofilm, while for the cell surface roughness, Rrms values were calculated from a line of cells in three different regions of each image of untreated and peptide-treated biofilms. The final Rrms values are the averages of all measurements.
# [3] = system: S. aureus clinical isolate biofilm-embedded bacteria; assay: CLSM live/dead assay, SYTO 9 / TO-PRO-3 iodide, membrane integrity; settings: 25 and 50 μM, 4 h in PBS, inner layer z = 2 μm
# Protocol: To visualize the effect of vCPP2319 on membrane integrity of biofilm-embedded bacteria, an adapted live/dead assay using SYTO 9 and TO-PRO-3 iodide (Invitrogen) was performed, as previously described.[24]S. aureus suspensions at 1 × 10^6 CFU/mL were incubated in a sterile μ-Slide 8-well plate (Ibidi) for 24 h at 37 °C. Preformed biofilms were washed once with PBS and incubated with vCPP2319 at 25 or 50 μM, in PBS, for 4 h at 37 °C. Untreated biofilms were used as a control. After a washing step with PBS, biofilms were sequentially stained with 3 μM SYTO 9 for 30 min and 4 μM TO-PRO-3 iodide for 15 min at room temperature.
# SYTO 9 was excited using the Argon laser (488 nm), and both TO-PRO-3 iodide and WGA Alexa Fluor 633 were excited with the Helium–Neon laser (633 nm), respectively. […] All images were analyzed with the image processor Fiji.[54] TO-PRO-3 mean fluorescence intensity over the image was quantified from the xy plane of an inner layer (z = 2 μm, z being the distance from the surface of the glass slide) using Fiji’s incorporated plug-ins.[54] WGA mean fluorescence intensity over the image was quantified from the xy plane of an inner layer (z = 2 μm, z being the distance from the surface of the glass slide) and also from a z-projection of the sum of the z-stack slices, using Fiji’s incorporated plug-ins.[54] […]
substance,measurement,setting,value
WRRRYRRWRRRRRWRRRPRR-NH2 [vCPP2319],ρi/ρcontrol (polysaccharides) eq 4,[1]; WGA fluorescence at z = 2 μm,0.7
same,mi/mcontrol (polysaccharides) eq 5,[1]; integrated WGA fluorescence over total biofilm,0.5
same,ρi/ρcontrol (polysaccharides) eq 6,[1]; integrated WGA fluorescence over zz divided by biofilm height,0.8
same,cell surface roughness (Rrms),[2]; 25 μM,13 ± 3 nm
same,biofilm surface roughness (Rrms),[2]; 25 μM,303 ± 93 nm
same,cell surface roughness (Rrms),[2]; 50 μM,20 ± 5 nm
same,biofilm surface roughness (Rrms),[2]; 50 μM,429 ± 142 nm
same,"membrane damage, TO-PRO-3 iodide staining",[3],increase of red-stained bacteria
